Key:
[1] = Whole blood stability, mouse; format: in vitro ADME
Excerpt: (§1) The results of the assay on stability in blood and IC50 values for pancreatic cancer cell line KP4 are given below in Table 24.

KP4 = assay: Cell viability assay (CellTiter Glo), pancreatic ductal adenocarcinoma KP4; format: cell-based, human; conditions: Homo sapiens, KP-4, 96 h, pancreatic cancer cell line KP4, 96 hours, CellTiter Glo; read-out: IC50 μM KP4
Method in brief: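 KP4 cells seeded at 1,000–10,000 per well, treated 96 h with 9-point 3-fold dilutions from 30 μM top (4.6 nM–30 μM, duplicates; ≤0.25% DMSO). Viability by CellTiter Glo luminescence; % inhibition relative to DMSO-only wells, giving IC50, relative IC50 or % top inhibition.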

[2] = Whole blood stability, human; format: in vitro ADME
Excerpt: as §1

Structure (SMILES)	Whole Blood Stability % Remaining at 37° C. Mouse ([1]; 0 min) [%]	Whole Blood Stability % Remaining at 37° C. Mouse ([1]; 30 min) [%]	Whole Blood Stability % Remaining at 37° C. Mouse ([1]; 60 min) [%]	IC50 (KP4) [µM]	Whole Blood Stability % Remaining at 37° C. Human ([2]; 0 min) [%]	Whole Blood Stability % Remaining at 37° C. Human ([2]; 30 min) [%]	Whole Blood Stability % Remaining at 37° C. Human ([2]; 60 min) [%]
COC(=O)c1ccc([C@H]2c3[nH]c4ccccc4c3C[C@H](C)N2C(=O)CCl)cc1 [Compound 77]	100.0	0.5	0.0	< 0.01	100.0	54.1	27.5
COC(=O)[C@H]1Cc2c([nH]c3ccccc23)[C@H](c2ccc(NC(C)=O)cc2)N1C(=O)CCl [Compound 80]	100.0	72.3	58.6	0.01 to 0.1	100.0	60.9	49.6
COC(=O)[C@H]1Cc2c([nH]c3ccccc23)[C@H](c2ccc(C(=O)NCC3CC3)cc2)N1C(=O)CCl [Compound 81]	100.0	64.2	39.8	< 0.01	100.0	48.0	40.6
COC(=O)[C@H]1Cc2c([nH]c3ccccc23)[C@H](c2ccc(S(=O)(=O)NCC3CC3)cc2)N1C(=O)CCl [Compound 82]	100.0	43.1	21.7	< 0.01	100.0	47.6	34.5
COC(=O)[C@H]1Cc2c([nH]c3ccccc23)[C@H](c2ccc(NCC3CC3)cc2)N1C(=O)CCl [Compound 83]	100.0	66.1	30.0	< 0.01	100.0	78.5	52.9
COC(=O)[C@H]1Cc2c([nH]c3ccccc23)[C@H](c2ccc(C(=O)OCC3(C)CC3)cc2)N1C(=O)CCl [Compound 84]	100.0	0.0	0.0	< 0.01	100.0	87.7	58.3
COC(=O)[C@H]1Cc2c([nH]c3ccccc23)[C@H](c2ccc(C(=O)OCC3CCC3)cc2)N1C(=O)CCl [Compound 85]	100.0	0.0	0.0	< 0.01	100.0	73.5	54.4
COC(=O)[C@H]1Cc2c([nH]c3ccccc23)[C@H](c2ccc(C(=O)OCC3CCCC3)cc2)N1C(=O)CCl [Compound 86]	100.0	0.0	0.0	< 0.01	100.0	78.3	49.6
COC(=O)[C@H]1Cc2c([nH]c3ccc(Br)cc23)[C@H](c2ccc(C(=O)OCC3CC3)cc2)N1C(=O)CCl [Compound 87]	100.0	0.0	0.0	< 0.01	100.0	63.2	32.2
COC(=O)c1ccc([C@H]2c3[nH]c4ccc(Br)cc4c3C[C@H](C(=O)OC)N2C(=O)CCl)cc1 [Compound 88]	100.0	0.0	0.0	< 0.01	100.0	56.4	27.0
COC(=O)[C@H]1Cc2c([nH]c3ccccc23)[C@H](c2ccc(C(=O)OCC3CCCCC3)cc2)N1C(=O)CCl [Compound 89]	100.0	0.0	0.0	< 0.01	100.0	84.8	91.2
COC(=O)c1ccc([C@H]2c3[nH]c4ccc(F)cc4c3C[C@H](C(=O)OC)N2C(=O)CCl)cc1 [Compound 91]	100.0	0.0	0.0	< 0.01	100.0	65.8	47.2
COC(=O)c1ccc([C@@H]2c3[nH]c4ccc(F)cc4c3C[C@H](C(=O)OC)N2C(=O)CCl)cc1 [Compound 92]	100.0	0.0	0.0	0.1 to 0.5	100.0	40.2	21.0
COC(=O)c1ccc([C@H]2c3[nH]c4ccc(Cl)cc4c3C[C@H](C(=O)OC)N2C(=O)CCl)cc1 [Compound 93]	100.0	0.0	0.0	0.1 to 0.5	100.0	66.3	44.9
COC(=O)c1ccc([C@@H]2c3[nH]c4ccc(Cl)cc4c3C[C@H](C(=O)OC)N2C(=O)CCl)cc1 [Compound 94]	100.0	0.0	0.0	< 0.01	100.0	50.3	27.1
COC(=O)c1ccc([C@H]2c3[nH]c4cccc(Br)c4c3C[C@H](C(=O)OC)N2C(=O)CCl)cc1 [Compound 95]	100.0	1.5	0.0	0.01 to 0.1	100.0	109.5	85.6
COC(=O)c1ccc([C@H]2c3[nH]c4cc(Br)ccc4c3C[C@H](C(=O)OC)N2C(=O)CCl)cc1 [Compound 96]	100.0	0.0	0.0	< 0.01	100.0	29.1	10.9
COC(=O)c1ccc([C@H]2c3[nH]c4c(Br)cccc4c3C[C@H](C(=O)OC)N2C(=O)CCl)cc1 [Compound 97]	100.0	0.0	0.0	< 0.01	100.0	69.6	44.1
CC[C@H]1Cc2c([nH]c3ccccc23)[C@H](c2ccc(C(=O)OC)cc2)N1C(=O)CCl [Compound 98]	100.0	0.0	0.0	< 0.01	100.0	79.2	54.8
CC[C@H]1Cc2c([nH]c3ccccc23)[C@@H](c2ccc(C(=O)OC)cc2)N1C(=O)CCl [Compound 99]	100.0	4.0	0.0	> 1	100.0	94.5	67.9
COC(=O)c1cccc([C@H]2c3[nH]c4ccccc4c3C[C@H](C(=O)OC)N2C(=O)CCl)c1 [Compound 100]	100.0	35.8	10.8	< 0.01	100.0	60.9	44.3
C[C@H]1Cc2c([nH]c3ccccc23)[C@H](c2ccc(S(=O)(=O)N[C@]34CC5C[C@H](C[C@H](C5)C3)C4)cc2)N1C(=O)CCl [Compound 101]	100.0	82.2	113.2	< 0.01	100.0	46.8	29.8

— patent publication US11098040B2, “Compounds and methods of use” (Ferro Therapeutics, Inc., priority 2018, dated 2021)
